Test results taken from US20080242688A1, “Method 741” (ASTRAZENECA AB, priority 2007, published 2008).
“And” between values parts separate entries of the source, which are not always exact repeats. Equal values may be shown once.

Assays:
[1] = test system: putative dopaminergic neurons within the VTA; assay: Ventral Tegmental Area dopamine neuron firing; type: in vivo; details: rat, iv, 0.17-0.5 h
[2] = Single dose PK/TK, minipig; type: in vivo
Source text: This section provides a summary of the pharmacokinetic and metabolism properties of AZD0328 derived from in vivo studies. […] The derived PK/TK parameters from these studies are presented in Table 4 for single dose studies (DMR4, 0619LR, 20030191PCR, DMO16, DMB10, DMW12, 50190, 0190DD and 03.330/1), and are presented in Table 5 multiple dose PK/TK studies (DMR4, 0612AR, DMB15, 50190, 0190DD and 0295AD).

α7 receptor = α7 receptor (Rattus norvegicus, UniProt Q05941); assay: FFX hippocampal slice fEPSP, LTP; type: cell-based; details: 10 μM
α7 receptor, sequence (Q05941 23-502): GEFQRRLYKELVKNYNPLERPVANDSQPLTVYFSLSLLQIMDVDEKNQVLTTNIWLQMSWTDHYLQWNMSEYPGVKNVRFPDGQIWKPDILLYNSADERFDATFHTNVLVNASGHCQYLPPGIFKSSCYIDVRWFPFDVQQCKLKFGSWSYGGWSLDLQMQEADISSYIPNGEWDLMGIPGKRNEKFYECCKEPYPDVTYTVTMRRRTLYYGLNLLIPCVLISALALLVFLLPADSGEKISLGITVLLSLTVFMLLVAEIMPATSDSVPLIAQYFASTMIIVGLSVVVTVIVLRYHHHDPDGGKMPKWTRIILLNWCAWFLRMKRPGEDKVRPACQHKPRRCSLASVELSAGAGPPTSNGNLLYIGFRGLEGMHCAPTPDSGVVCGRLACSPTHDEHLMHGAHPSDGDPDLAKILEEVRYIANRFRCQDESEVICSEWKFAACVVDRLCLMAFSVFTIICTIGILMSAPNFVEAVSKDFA
Source text: In membranes prepared either from cultured, human recombinant α7 receptor-expressing, human embryonic kidney cells α7-HEK) or from rat brain hippocampus, AZD0328 competed with binding of an iodinated form of the high-affinity, selective α7 receptor antagonist snake toxin, [^125I]-α-bungarotoxin (BTX) (Table 1). In Xenopus oocytes injected with human, recombinant α7 receptor mRNA, AZD0328 activates whole cell currents (Table 2). […] In acutely dissociated rat hippocampal interneurons, AZD0328 elicits rapidly activated, desensitizing whole-cell current (Table 1), consistent with the known properties of rat neuronal α7 receptors. […] AZD0328 modulates synaptic function, consistent with the well-known role of α7 receptors as heteroreceptor modulators of glutamatergic and GABAergic synaptic function.

rat brain α7 receptors = rat brain α7 receptors (Rattus norvegicus, UniProt Q05941); assay: BTX binding, rat hippocampal membranes
rat brain α7 receptors, sequence (Q05941 23-502): as above
Protocol: AZD0328 is a reversible, high affinity ligand of human recombinant and rat brain α7 receptors. […]. Systemic administration of AZD0328 occupied rat brain α7 receptors and increased the number of α7 receptor binding sites. Very low doses of AZD0328 (0.00048-0.0016 mg/kg) improved spatial working memory performance in rhesus monkeys. The pharmacological profile of AZD0328 illustrates its potential utility to improve cognitive function by activating the α7 receptor.
. In Xenopus oocytes injected with human, recombinant α7 receptor mRNA, AZD0328 activates whole cell currents (Table 2). […] In acutely dissociated rat hippocampal interneurons, AZD0328 elicits rapidly activated, desensitizing whole-cell current (Table 1), consistent with the known properties of rat neuronal α7 receptors. […] AZD0328 modulates synaptic function, consistent with the well-known role of α7 receptors as heteroreceptor modulators of glutamatergic and GABAergic synaptic function.

rhesus monkeys = assay: Spatial delayed response (SDR) task; type: in vivo, rhesus monkey
Source text: AZD0328 at low doses improved performance in the spatial delayed response test in monkeys. Rhesus monkeys were trained in a spatial delayed response task. In this task, food-motivated monkeys observed one of several spatially-displaced wells being baited with a food reward. After a brief delay during which a shutter is drawn and the wells are covered, the monkey must indicate the position of the baited well to receive the food reward. The performance of groups of monkeys was titrated into a narrow range by changing the number of wells or the duration of the delay. Monkeys were tested extensively to establish baseline performance before being administered drug or vehicle. Intramuscular administration of 0.00048 or 0.0016 mg/kg AZD0328 evoked a sustained increase in the percentage of correct responses monkeys made when compared with responses of vehicle-treated monkeys. […] Higher doses (≧0.016 mg/kg or higher) and lower doses (≦0.00016 mg/kg) had either no effect on monkeys or transiently impaired their performance of the task.
Rhesus monkey were trained in a spatial delayed response task. Middle doses of AZD0328 (0.0016 and 0.00048 mg/kg im) evoked a sustained improvement in rhesus monkey performance, while a higher dose (0.48 mg/kg) and a lower dose (0.000016 mg/kg) transiently impaired performance of the task (Table 2).

ferrets = assay: Emetic potential in ferrets; type: in vivo; details: ferret
Protocol: The emetic potential of AZD0328 was investigated in ferrets (n=6-8/dose) following a single oral dose of vehicle or AZD0328 (Table 3). Videotape recordings were used for observation of the animals up to 4 h after dose for quantitation and timing of emetic behaviours, characterised as retches (abdominal contractions), vomits and wet-dog shakes.

dogs = assay: Maximum tolerated dose and 7 days oral toxicity in the dog; type: in vivo
Protocol: (§1) Single doses of 4.5 to 17 mg/kg were administrated to test AZD0328 to 2 male and 2 female dogs. […] Signs of nausea and at the higher doses vomiting was seen. In the 7 days repeated dose study 2 male and 2 female dogs were given 35 mg/kg per day. However, vomiting was the major clinical sign recorded during the study.

[3] = as above; type: in vivo; details: both sexes, dog, in vivo, oral; dogs, single doses of 4.5 to 17 mg/kg
Protocol: as §1

5-HT3A = biological target: T1, 5-HT3A (Homo sapiens, UniProt P46098); assay: Functional assays at recombinant human receptors; type: biochemical; details: functional potency, recombinant human receptors in vitro
T1 construct: expressed in transfected cells
T1 sequence (P46098 24-478): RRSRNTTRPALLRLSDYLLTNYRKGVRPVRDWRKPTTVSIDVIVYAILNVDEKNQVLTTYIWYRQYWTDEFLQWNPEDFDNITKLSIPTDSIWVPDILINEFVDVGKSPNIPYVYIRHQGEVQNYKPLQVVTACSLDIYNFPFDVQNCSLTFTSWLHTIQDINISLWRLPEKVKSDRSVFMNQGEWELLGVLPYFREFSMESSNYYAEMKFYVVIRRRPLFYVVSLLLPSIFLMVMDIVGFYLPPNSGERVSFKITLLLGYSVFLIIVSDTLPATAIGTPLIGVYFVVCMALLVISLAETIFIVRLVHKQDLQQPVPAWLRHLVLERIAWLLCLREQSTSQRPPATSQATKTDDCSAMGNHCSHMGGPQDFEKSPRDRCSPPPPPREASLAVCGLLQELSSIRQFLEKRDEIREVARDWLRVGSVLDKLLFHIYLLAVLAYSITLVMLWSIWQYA

[4] = both sexes, Gottingen, in vivo, minipig 2M+2F, 50190, single oral 73.1 mg/kg (338 μmol/kg), capsules, fasted
[5] = both sexes, Gottingen, in vivo, minipig 2M+2F, 50190, single oral 563 mg/kg (2602 μmol/kg), capsules, fasted
[6] = male, Gottingen, in vivo, minipig 3M, DMW12, single oral 16.9 mg/kg (78.1 μmol/kg), solution, fed

In the case of `c1cnc2c(c1)C[C@@]1(CN3CCC1CC3)O2` [AZD0328, (R)-Spiro[1-azabicyclo[2.2.2]octane-3,2′(3′H)-furo[2,3-b]pyridine]], the “Dose active: Ventral Tegmental Area dopamine neuron firing - increased” value [1] is reported as 0.00138 mg/kg, the AUC [2, 4] is reported as 3140 ng·h/mL and 14.5 µM·h and the Cmax [2, 4] is reported as 379 ng/mL and 1.75 µM. The Tmax [2, 4] was 2 to 6 h, the AUC [2, 5] was 18200 ng·h/mL and 84.2 µM·h and the Cmax [2, 5] was 1910 ng/mL and 8.84 µM. The Tmax [2, 5] was 12 h, the clearance ([2]; male, Gottingen, in vivo, minipig 3M, DMW12, iv 8.5 mg/kg (39.3 μmol/kg)) was 35.5 mL/min/kg and the half-life ([2]; male, Gottingen, in vivo, minipig 3M, DMW12, iv 8.5 mg/kg (39.3 μmol/kg), read-out: T½ (converted)) was 3.71 ± 1.72 h. For the same molecule, the Vd ([2]; male, Gottingen, in vivo, minipig 3M, DMW12, iv 8.5 mg/kg (39.3 μmol/kg), read-out: Vss) was 11.1 ± 4.2 L/kg, the AUC [2, 6] was 404 ng·h/mL and 1.87 µM·h and the Cmax [2, 6] was 81.3 ng/mL and 376 nM. For the same molecule, the Tmax [2, 6] was 1 to 4 h, the F ([2]; minipig 3M, DMW12, oral 16.9 mg/kg vs iv 8.5 mg/kg) was 5.19 ± 2.22% and the “fEPSP LTP” value (α7 receptor) was 153 % baseline. The Ki (rat brain α7 receptors) was 4.7 nM, the “duration of improved SDR performance after a single dose” value (rhesus monkeys; four of nine monkeys, middle doses (0.0016 and 0.00048 mg/kg im)) was “more than one month” and the “higher doses with no effect or transiently impaired SDR performance” value (rhesus monkeys; rhesus monkeys) was ≥ 0.016 mg/kg. For the same molecule, the “lower doses with no effect or transiently impaired SDR performance” value (rhesus monkeys; rhesus monkeys) was ≤ 0.00016 mg/kg, the “percent correct responses (SDR)” value (rhesus monkeys; rhesus monkeys, 0.016 mg/kg) was “non-significant increase” and the “dose with statistically significant difference from vehicle for retches” value (ferrets; oral) was 5.6 mg/kg. The emetic responses (ferrets; oral gavage 5.6, 16.9 or 56.2 mg/kg) was “emetic responses were present at all doses”, the “dose with slight QT prolongation (ECG)” value (dogs) was ≥ 8.6 mg/kg and the Cmax [3] was 2.8 to 14 µM. The “functional selectivity 5-HT3A>α7” value (5-HT3A) was 14 fold.
